Measurements reported in patent US9526713B2, “Use of dencichine in preparation of drug for treating thrombocytopenia” (KUNMING SHENGHUO PHARMACEUTICAL (GROUP) CO., LTD., priority 2013, dated 2016).
Like-named read-outs stand apart in the source and are kept apart here.

Legend:
rabbits = test: Influence of Dencichine for injection on the platelet count of rabbits (single-dose injection); type: in vivo, rabbit
ITP model mice = type: in vivo, BALB/C mice; details: 14 days
Text: Health BALB/C mice (body weight 18˜22 g) are randomly divided into six groups with 12 mice for each group:
Blank group, Model group, Prednisone Acetate Group, Dencichine (high dose, middle dose, and low dose) groups.
Modeling method: blood was taken from orbital vein of BALB/C Mice, followed by EDTA-Na2 Anticoagulation, and then platelets are separated and washed. The prepared platelet suspension solution was mixed uniformly with equal amount of complete Freund's adjuvant and incomplete Freund's adjuvant respectively. In the first week, antigen containing complete Freund's adjuvant is subcutaneously injected into hind paw, back and groin of the guinea pig. Injections are done for 4 times in total, with 5 spots for each injection and 100 μl for each spot. In the 6th week, non-anticoagulated whole blood was taken from the guinea pigs, and was centrifuged for 10 min under 3000 r/min to produce a supernate, which is the anti-mouse platelet serum (GP-APS) of the guinea pigs. The supernate was placed in a water bath (56° C.) for 30 min for complement inactivation, and then the inactivated supernate was diluted with normal saline, followed by test of antibody titers by agar diffusion method, and finally was stored in a refrigerator at −20° C. for later use.
Except the normal group, the mice of the remain five groups are injected with anti-mouse platelet serum (APS) of the guinea pig with a dose of 100 μl/20 g body weight, via intraperitoneal injection, on the 1st, 3rd, 5th, 7th, 9th, 11th and 13th day of the experiment.
The mice of each group are given intragastric administration from the first day. […] The mice of the prednisone acetate group are given intragastric administration of suspension of prednisone acetate at 5 mg/(kg·d). The mice of other groups are given intragastric administration of same volumetric of normal saline at 0.2 ml/20 g body weight. Intragastric administration for once each day, and continuous administration for 14 days.
Observation of the Subcutaneous Purpura:
Class I, minor bleeding are found at injection sites, and hemorrhagic spots are interspersed at other sites;
Class II, overt bleeding are found at injection sites, and ecchymosis and petechiae are found at other sites;

[1] = Organ index of rats suffering thrombopenia induced by carboplatin; type: in vivo, Wistar rats
Method: (§1) 81 rats are prepared and randomly divided into eight groups: • blank control group, • high-dose group A (4 mg/kg, intraperitoneal injection, non modeling), • model group (40 mg/kg, tail vein injection), • interleukin-11 group (260 μg/kg, subcutaneous injection), • high dose group B (4 mg/kg, intraperitoneal injection, modeling), • high dose group (4 mg/kg, intraperitoneal injection), • middle dose group (1 mg/kg, intraperitoneal injection), and • low dose group (0.25 mg/kg, intraperitoneal injection),
(§2) Thereafter, all animals, except for those of blank group and high-dose group A, are individually injected with carboplatin (40 mg/kg) for modeling, and followed by successive administration for 15 days. During these 15 days, the rats of high-dose group A and high dose group B are stopped from administration, and taken blood from the tail on 5th day, 10th day and 15th day after the modeling respectively for detecting hematological indices. After 15th day of modeling, carboplatin (40 mg/kg) is injected again for a second modeling, and all the groups take successive administration according to the foregoing method, once a day for successive 10 days. Before each hematological indices detection, animals are weighed respectively. Taking the tails' blood of rats on 5th day after the second injection of carboplatin for detecting hematological indices, and taking the tails' blood of rats on 10th day after the second injection of carboplatin for detecting the indices of hematology, reticulocytes and coagulation; and weighing animals and killing them; and weighing liver, thymus, spleen and adrenal gland taken from the dead rats, and calculating out viscera indices; further taking out marrow for doing pathological examination.

[2] = system: rats suffering thrombopenia induced by carboplatin; test: Platelet count of rats suffering thrombopenia induced by multiple injections of carboplatin; type: in vivo, Wistar rats; details: for increase of platelet count compared with the model group: first injection of carboplatin for 10 days
Method: as §1
wherein, the Model group has 11 rats, and the other groups has 10 rats respectively. Before the experiment, the animals are asked to adapt the environment for 2 days, and then blood is taken from their tails for detecting hematological index.
After administration for 10 days, blood is taken from tails of rats from blank control group, high-dose group A, and positive drug group respectively for detecting hematological index.
as §2

[3] = high dose group (6 mg/kg per Table 8) intragastric
[4] = low dose group (1.5 mg/kg per Table 8) intragastric
[5] = middle dose group (3 mg/kg) intragastric
[6] = high dose group A, 4 mg/kg i.p., non modeling
[7] = high dose group B, 4 mg/kg i.p., prophylactic, modeling
[8] = low dose group, 0.25 mg/kg i.p.
[9] = middle dose group, 1 mg/kg i.p.

For `N[C@@H](CNC(=O)C(=O)O)C(=O)O` [Dencichine, β-N-oxalyl-L-α, β-diaminopropionic acid], the PLT (rabbits; 0.04 mg/kg, 0 min) was 523.3 ± 78.5 ×10^9/L, the PLT (rabbits; 0.04 mg/kg, 30 min) was 451.0 ± 144.5 ×10^9/L and the PLT (rabbits; 0.04 mg/kg, 60 min) was 504.0 ± 87.8 ×10^9/L. For the same compound, the PLT (rabbits; 0.20 mg/kg, 0 min) was 574.0 ± 64.3 ×10^9/L, the PLT (rabbits; 0.20 mg/kg, 30 min) was 502.3 ± 60.8 ×10^9/L and the PLT (rabbits; 0.20 mg/kg, 60 min) was 518.2 ± 128.5 ×10^9/L. The PLT (rabbits; 1.00 mg/kg, 0 min) was 491.2 ± 163.1 ×10^9/L, the PLT (rabbits; 1.00 mg/kg, 30 min) was 526.5 ± 143.8 ×10^9/L and the PLT (rabbits; 1.00 mg/kg, 60 min) was 541.0 ± 121.6 ×10^9/L. The “change on the platelet count of rabbits” value (rabbits; single-dose injection, various doses) was “no obvious change”, the “Subcutaneous purpura, bleeding degree +” value (ITP model mice; [3]) was 6 number of mice and the “Subcutaneous purpura, bleeding degree ++” value (ITP model mice; [3]) was 2 number of mice. The “Subcutaneous purpura, bleeding degree +++” value (ITP model mice; [3]) was 0 number of mice, the “Subcutaneous purpura, bleeding degree −” value (ITP model mice; [3]) was 0 number of mice and the “Subcutaneous purpura, bleeding degree +” value (ITP model mice; [4]) was 4 number of mice. For the same compound, the “Subcutaneous purpura, bleeding degree ++” value (ITP model mice; [4]) was 4 number of mice, the “Subcutaneous purpura, bleeding degree +++” value (ITP model mice; [4]) was 0 number of mice and the “Subcutaneous purpura, bleeding degree −” value (ITP model mice; [4]) was 0 number of mice. For the same compound, the “Subcutaneous purpura, bleeding degree +” value (ITP model mice; [5]) was 5 number of mice, the “Subcutaneous purpura, bleeding degree ++” value (ITP model mice; [5]) was 3 number of mice and the “Subcutaneous purpura, bleeding degree +++” value (ITP model mice; [5]) was 0 number of mice. For the same compound, the “Subcutaneous purpura, bleeding degree −” value (ITP model mice; [5]) was 0 number of mice, the “organ index, Adrenal gland” value [1, 6] was 0.03 ± 0.004 g/100 g body weight and the “organ index, Liver” value [1, 6] was 3.33 ± 0.22 g/100 g body weight. For the same compound, the “organ index, Spleen” value [1, 6] was 0.28 ± 0.05 g/100 g body weight, the “organ index, Thymus gland” value [1, 6] was 0.18 ± 0.08 g/100 g body weight and the “organ index, Adrenal gland” value [1, 7] was 0.03 ± 0.01 g/100 g body weight. The “organ index, Liver” value [1, 7] was 3.70 ± 0.31 g/100 g body weight, the “organ index, Spleen” value [1, 7] was 0.36 ± 0.10 g/100 g body weight and the “organ index, Thymus gland” value [1, 7] was 0.10 ± 0.03 g/100 g body weight. For the same compound, the “organ index, Adrenal gland” value ([1]; high dose group, 4 mg/kg i.p.) was 0.03 ± 0.004 g/100 g body weight, the “organ index, Liver” value ([1]; high dose group, 4 mg/kg i.p.) was 3.61 ± 0.46 g/100 g body weight and the “organ index, Spleen” value ([1]; high dose group, 4 mg/kg i.p.) was 0.32 ± 0.11 g/100 g body weight. The “organ index, Thymus gland” value ([1]; high dose group, 4 mg/kg i.p.) was 0.11 ± 0.02 g/100 g body weight, the “organ index, Adrenal gland” value [1, 8] was 0.03 ± 0.004 g/100 g body weight and the “organ index, Liver” value [1, 8] was 3.71 ± 0.21 g/100 g body weight. For the same compound, the “organ index, Spleen” value [1, 8] was 0.35 ± 0.06 g/100 g body weight, the “organ index, Thymus gland” value [1, 8] was 0.11 ± 0.02 g/100 g body weight and the “organ index, Adrenal gland” value [1, 9] was 0.03 ± 0.01 g/100 g body weight. The “organ index, Liver” value [1, 9] was 3.50 ± 0.52 g/100 g body weight, the “organ index, Spleen” value [1, 9] was 0.32 ± 0.10 g/100 g body weight and the “organ index, Thymus gland” value [1, 9] was 0.09 ± 0.04 g/100 g body weight. For the same compound, the platelet count ([2]; high dose group A, 4 mg/kg i.p., non modeling, 5th day after first injection of carboplatin) was 1113.8 ± 356.97 ×10^9/L, the platelet count ([2]; high dose group A, 4 mg/kg i.p., non modeling, 5th day after second injection of carboplatin) was 1163.3 ± 233.2 ×10^9/L and the platelet count ([2]; high dose group A, 4 mg/kg i.p., non modeling, 10th day after first injection of carboplatin) was 638.5 ± 207.9 ×10^9/L. For the same compound, the platelet count ([2]; high dose group A, 4 mg/kg i.p., non modeling, 10th day after second injection of carboplatin) was 873 ± 147.2 ×10^9/L, the platelet count ([2]; high dose group A, 4 mg/kg i.p., non modeling, 15th day after first injection of carboplatin) was 799.5 ± 349.8 ×10^9/L and the platelet count ([2]; high dose group A, 4 mg/kg i.p., non modeling, before experiment) was 625.5 ± 109.3 ×10^9/L. For the same compound, the platelet count ([2]; high dose group A, 4 mg/kg i.p., non modeling, prophylactic administration for 10 days) was 586.9 ± 139.67 ×10^9/L, the platelet count ([2]; high dose group B, 4 mg/kg i.p., prophylactic, modeling, 5th day after first injection of carboplatin) was 392.7 ± 116.9 ×10^9/L and the platelet count ([2]; high dose group B, 4 mg/kg i.p., prophylactic, modeling, 5th day after second injection of carboplatin) was 682.1 ± 266.4 ×10^9/L. For the same compound, the platelet count ([2]; high dose group B, 4 mg/kg i.p., prophylactic, modeling, 10th day after first injection of carboplatin) was 142.6 ± 78.6 ×10^9/L, the platelet count ([2]; high dose group B, 4 mg/kg i.p., prophylactic, modeling, 10th day after second injection of carboplatin) was 150.5 ± 99.9 ×10^9/L and the platelet count ([2]; high dose group B, 4 mg/kg i.p., prophylactic, modeling, 15th day after first injection of carboplatin) was 649.8 ± 234.1 ×10^9/L. The platelet count ([2]; high dose group B, 4 mg/kg i.p., prophylactic, modeling, before experiment) was 619.7 ± 106.81 ×10^9/L, the platelet count ([2]; high dose group, 4 mg/kg i.p., 5th day after first injection of carboplatin) was 302.2 ± 62.2 ×10^9/L and the platelet count ([2]; high dose group, 4 mg/kg i.p., 5th day after second injection of carboplatin) was 758.9 ± 231.2 ×10^9/L. The platelet count ([2]; high dose group, 4 mg/kg i.p., 10th day after first injection of carboplatin) was 186.9 ± 81.0 ×10^9/L, the platelet count ([2]; high dose group, 4 mg/kg i.p., 10th day after second injection of carboplatin) was 133.8 ± 126.3 ×10^9/L and the platelet count ([2]; high dose group, 4 mg/kg i.p., 15th day after first injection of carboplatin) was 1038.3 ± 237.1 ×10^9/L. The platelet count ([2]; high dose group, 4 mg/kg i.p., before experiment) was 625.7 ± 127.04 ×10^9/L, the “increase of platelet count compared with the model group” value ([2]; high-dose group (4 mg/kg i.p.)) was 27.1% and the platelet count ([2]; low dose group, 0.25 mg/kg i.p., 5th day after first injection of carboplatin) was 331.4 ± 76.3 ×10^9/L. The platelet count ([2]; low dose group, 0.25 mg/kg i.p., 5th day after second injection of carboplatin) was 712.8 ± 324.7 ×10^9/L, the platelet count ([2]; low dose group, 0.25 mg/kg i.p., 10th day after first injection of carboplatin) was 157.8 ± 49.3 ×10^9/L and the platelet count ([2]; low dose group, 0.25 mg/kg i.p., 10th day after second injection of carboplatin) was 133 ± 83.661 ×10^9/L. For the same compound, the platelet count ([2]; low dose group, 0.25 mg/kg i.p., 15th day after first injection of carboplatin) was 956.8 ± 266.5 ×10^9/L, the platelet count ([2]; low dose group, 0.25 mg/kg i.p., before experiment) was 611.5 ± 90.19 ×10^9/L and the platelet count ([2]; middle dose group, 1 mg/kg i.p., 5th day after first injection of carboplatin) was 359 ± 102.4 ×10^9/L. For the same compound, the platelet count ([2]; middle dose group, 1 mg/kg i.p., 5th day after second injection of carboplatin) was 620.2 ± 226.1 ×10^9/L, the platelet count ([2]; middle dose group, 1 mg/kg i.p., 10th day after first injection of carboplatin) was 197.7 ± 78.8 ×10^9/L and the platelet count ([2]; middle dose group, 1 mg/kg i.p., 10th day after second injection of carboplatin) was 70.386 ± 36.845 ×10^9/L. The platelet count ([2]; middle dose group, 1 mg/kg i.p., 15th day after first injection of carboplatin) was 1043.4 ± 288.1 ×10^9/L, the platelet count ([2]; middle dose group, 1 mg/kg i.p., before experiment) was 623 ± 98 ×10^9/L and the “increase of platelet count compared with the model group” value ([2]; middle-dose group (1 mg/kg i.p.)) was 34.4%.
